What was measured:
[1] = target: T1, human MPO (Homo sapiens, UniProt P05164); experiment: MPO inhibition; format: biochemical; details: read-out: IC50, irreversible inhibitor of human MPO
T1 sequence (P05164 49-745): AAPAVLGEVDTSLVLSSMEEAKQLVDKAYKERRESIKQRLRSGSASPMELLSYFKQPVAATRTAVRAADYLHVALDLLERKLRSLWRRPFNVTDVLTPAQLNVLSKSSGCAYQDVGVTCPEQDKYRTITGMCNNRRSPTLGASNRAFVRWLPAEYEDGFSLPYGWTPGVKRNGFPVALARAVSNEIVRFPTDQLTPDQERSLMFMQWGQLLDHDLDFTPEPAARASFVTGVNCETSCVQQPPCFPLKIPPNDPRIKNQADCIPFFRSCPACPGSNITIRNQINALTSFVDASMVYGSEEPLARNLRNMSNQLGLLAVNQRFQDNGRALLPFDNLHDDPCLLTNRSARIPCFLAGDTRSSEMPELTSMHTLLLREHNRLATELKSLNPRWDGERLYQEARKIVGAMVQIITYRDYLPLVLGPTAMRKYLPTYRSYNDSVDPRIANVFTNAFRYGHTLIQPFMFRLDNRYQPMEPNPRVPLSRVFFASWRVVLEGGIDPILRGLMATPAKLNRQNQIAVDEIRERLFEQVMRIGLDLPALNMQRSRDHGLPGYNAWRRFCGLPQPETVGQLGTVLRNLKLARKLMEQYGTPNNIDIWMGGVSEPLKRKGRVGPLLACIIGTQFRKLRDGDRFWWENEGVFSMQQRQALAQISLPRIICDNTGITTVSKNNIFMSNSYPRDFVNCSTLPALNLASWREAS

[2] = tested on: human sperm with activated human neutrophils; experiment: Sperm motility assessment (Hamilton-Thorn CASA) with activated neutrophils; format: cell-based; details: 3 μM
Protocol: (§1) The neutrophils were then added to the sperm in sperm-safe 5 mL Polystyrene round bottom tubes (Falcon) at a ratio of about 1:3.
Sperm motility was assessed using the Hamilton-Thorn CASA system. For each condition, a total of 200 cells were counted in at least four different fields of view. Where a sample had very low motility at least 100 cells were counted. The motility parameters were assessed at the start of the co-incubation with neutrophils (time 0), after 2 h and after 24 h. Motility was expressed as a percentage different between time 0 and after 2 h and percentage difference after time 0 and after 24 h for each time point for each sample.

[3] = tested on: human sperm with activated human neutrophils; experiment: Kremer penetration assay; format: cell-based; details: 3 μM
Protocol: as §1
The Kremer penetration test assesses a sperm cell's ability to penetrate and swim through viscous media. This test is also known as the sperm-cervical mucus penetration test. A cervical mucus substitute was made up using 1% methyl cellulose dissolved in capacitating media. The solution was gassed in a 37° C. 5% CO2 incubator for 20 min. Then flat capillary tubes (Rectangle Boro Tubing, CM Scientific) were placed in the methyl cellulose solution for a further 20 min to allow the media to flow up the capillary tubes. After the 2 h incubation, 100 μL from each condition was aliquoted into a fresh sperm safe tube. One end of each tube was then blocked using plasticine and then one tube was placed open end first into each test condition. Each sperm safe tube containing a capillary tube was incubated 1 hour at 37° C. with 5% CO2. After 1 h, the capillary tubes were removed and the number of cells at 1 cm mark were counted manually. The results were expressed as a ratio to control (sperm only).

[4] = Phase 1 studies in healthy volunteers, adverse events; format: in vivo, human; details: oral, single doses up to 1200 mg (1400 mg ER), multiple up to 325 mg TID (600 mg BID 10 days ER), 181 subjects
[5] = tested on: in situ zymosan activated peritoneum neutrophils; experiment: In vivo glutathione sulphonamide formation; design: species or system rat; details: rats, plasma concentration of ~5 μM
[6] = tested on: isolated human neutrophils; experiment: PMA stimulated HOCl in isolated neutrophils; format: cell-based; details: Neutrophil
[7] = tested on: human sperm; details: 4 mM, 2-hour incubation, N=29, P<0.01
Protocol: A 10 mM stock solution of the drug was made up in 100% DMSO. This was then serially diluted to a working concentration of 3 μM using sEBSS as the diluent and stored at 4° C. The drug or vehicle was then added to the neutrophils and placed in a 37° C. water bath for 10 min. The neutrophils were then added to the sperm in sperm-safe 5 mL Polystyrene round bottom tubes (Falcon) at a ratio of about 1:3. Zymosan at a final concentration of 1 μg/ml was added to activate the neutrophils and incubated for 2 hours at 37° C.
Following the 2 h incubation with activated neutrophils, aliquots of 50 μL were taken from all 4 conditions and transferred into 1.5 mL Eppendorf tubes. H2O2 was used as a positive control. An extra aliquot for a secondary only control was taken from the sperm only tube. The cells (except the secondary only tube) were incubated for 0.5 h at 37° C. with an anti-malondialdehyde (MDA) antibody (ab27642, abcam, Cambridge) at a working ratio of 1:50 (Moazamian R, Polhemus A, Connaughton H, Fraser B, Whiting S, Gharagozloo P, Aitken R J. Mol Hum Reprod 2015; 21(6):502-15). […] The level of MDA staining in each condition was then assessed in 10,000 cells using a pre-validated flow cytometry program in a BD LSRFortessa cell analyser. Due to a technical error one sample was unable to be assessed using flow cytometry.

SMILES | IC50 [1] | absolute change in overall sperm motility from baseline to 2 h and 24 h ([2]; first 11 subjects, vs vehicle, two-tailed t-test P=0.09) | percentage differences between CASA measurements at time zero and after 24-hour incubation (motility, progressive, rapid, VAP, VSL, VCL, ALH) ([2]; n=29, vs vehicle, not statistically significant (P>0.1)) | patients with clinically-relevant beneficial effect ([3]; 29 patients evaluated) | sperm found at 1 cm versus vehicle ([3]; 2 h incubation, n=29, p=0.02) | further subjects showing a smaller improvement ([3]; of 29 patients) | subjects with clinically-relevant improvement in sperm penetration ([3]; of the 29 subjects) | drug-related adverse events [4] | in vivo formation of glutathione sulphonamide [5] | inhibition at 1 µM [6] | MDA staining versus the other conditions [7]
O=c1[nH]c(=S)n(C[C@H]2CCCO2)c2nc[nH]c12 [AZD5904, 3-[[(2R)-tetrahydrofuran-2-yl]methyl]-2-thioxo-7H-purin-6-one] | 140 nM | statistical trend | positive trend | over 50% | significantly more sperm | 8 | 15 | No overtly drug-related adverse event | decreased | > 90% | 
OO [H2O2, hydrogen peroxide] |  |  |  |  |  |  |  |  |  |  | stained significantly more

— patent US11738027B2, “MPO inhibitors for use in medicine” (AstraZeneca AB, priority 2017, dated 2023)
